# Assay results from patent publication US20040235795A1, “Utilization of phosphatidylserine in the treatment of attention deficit syndrome (adhs)” (priority 2001, published 2004).
# Entries after “also recorded” stand apart in the source; their conditions may differ.
# Key:
# [1] = tested on: ADHS patients; conditions: cited from earlier work
# [2] = tested on: attention deficit syndrome (ADHS) probands; assay: Open study of phosphatidylserine supplementation in ADHS probands (examples 1 to 4); type: in vivo, human
# Procedure: Probands in an open study (examples 1 to 4) were selected with the aid of the Wender Utah Rating Scale (WURS) on the basis of their performance at school as well as clinical and physiological tests. They were assessed after 4, 6 and 8 weeks with the short-term supplementation and after 2, 4 and 6 months with the longer supplementation. The probands were examined for measurable differences with regard to concentration, attention, impulsivity, aggression potential and hyperactivity. Questionnaires were used to involve probands, parents and teachers in the evaluation.
# [3] = high dosages 200 to 500 mg daily over 4 months
# [4] = Example 3: 100 mg per day, 6 months, child, after the third month
substance,measurement,setting,value
phosphatidylserine,improvement of the ADHS symptoms,[1]; 100 mg per day over a period of 2 months,did not result in a clear improvement
same,side effects with drugs administered at the same time,[1]; 100 to 500 mg daily,no side effects occurred
same,probands with positive effect,"[1]; 200 to 300 mg daily (severe symptoms up to 500 mg daily) over 4 months, probands aged 3 to 19 years",25 of 27
same,improvement in single proband one,[1]; [3],not possible to make a clear statement about an improvement
same,improvement in single proband two,[1]; [3],only a slight improvement
same,habituation effects,[2]; ADHS patients / probands with ADHS,no habituation effects occurred
same,general well-being (reported by proband),"[2]; Example 2: 200 mg three times daily, 7 weeks, child",improvement
same,hyperactivity,"[2]; Example 2: 200 mg three times daily, 7 weeks, child, end of supplementation",marked decline
same,"attentiveness, concentration and memory performance as well as achievement at school","[2]; Example 3: 100 mg per day, 6 months, child",improved considerably
same,general well-being,[2]; [4],improvement
same,mood,[2]; [4],uplift
same,tolerance,[2]; even in high doses and over a longer supplementation period,no limitation whatsoever on its wellknown good tolerance; also recorded: well tolerated
